Earlier results as cited in US20150024055A1, “ENHANCED IMMEDIATE RELEASE FORMULATIONS OF TOPIRAMATE” (Supernus Pharmaceuticals, Inc., priority 2006, published 2015).

Legend:
[1] = in vivo

CC1(C)O[C@@H]2[C@@H](CO[C@@]3(COS(N)(=O)=O)OC(C)(C)O[C@@H]23)O1 [Topiramate]
solubility in organic solvents (acetone, dimethylsulfoxide and ethanol): soluble
solubility in alkaline solutions (alkaline solutions containing sodium hydroxide or sodium phosphate): soluble
solubility of topiramate in water (water, room temperature): about 9.8 mg/ml
time to reach peak plasma levels [1]: about two
